Assay results published in paper PMC2829385 (The Journal of investigative dermatology, 2009).
pIC50: −log10 of the molar value. “And” between values parts separate entries of the source, which are not always exact repeats. Equal entries are not always repeated. “Also recorded” adds a separate entry of the source. Structures can show the parent of a compound that is named as a salt.

What was measured:
[1] = tested on: primary human keratinocytes; assay: UVB-induced apoptosis, sub-2N DNA content by flow cytometry; assay type: cell-based
[2] = tested on: ATR-dependent serine 345 residue of Chk1; assay: Western blot of UVB-induced Chk1 Ser345 phosphorylation in keratinocytes; assay type: cell-based, human; details: 2 mM caffeine, 75 mJ/cm^2 UVB (Figure 2a)
ATM = details: read-out: IC50 for ATM; ref Sarkaria et al., 1999; cited from earlier work
[3] = tested on: primary human keratinocytes; assay: Western blot of UVB-induced caspase 3 and PARP cleavage in keratinocytes; assay type: cell-based; details: 2 mM caffeine, 75 mJ/cm^2 UVB, 8 h (Figure 1a)
[4] = humans drinking 2–5 cups of coffee per day; ref de Leon et al., 2003; cited from earlier work
[5] = tested on: phosphorylation of Chk1 on Ser345; details: mice, oral caffeine in drinking water 0.4 mg/ml (2 mM); ref Lu et al., 2008; cited from earlier work
[6] = tested on: UV-induced skin carcinogenesis; details: mice, oral caffeine as drinking fluid 0.4 mg/ml; ref Huang et al., 1997; cited from earlier work
cAMP phosphodiesterase = details: read-out: IC50 cAMP phosphodiesterase; ref Butcher and Sutherland, 1962; cited from earlier work

| Compound | proportion of cells undergoing apoptosis (sub-2N DNA content) ([1]; 2 mM caffeine 30 min before 75 mJ/cm^2 UVB, 24 h, UVB alone 10% (Figure 1b)) [%] | proportion of cells undergoing apoptosis (sub-2N DNA content) ([1]; 2 mM caffeine alone (scrambled siRNA), 75 mJ/cm^2 UVB, 24 h (Figure 2c)) [%] | proportion of cells undergoing apoptosis (sub-2N DNA content) ([1]; 2 mM caffeine plus ATR siRNA, 75 mJ/cm^2 UVB, 24 h (Figure 2c)) [%] | increase in UVB-induced apoptosis vs UVB alone (relative cell death) ([1]; 2 mM caffeine pretreatment, 75 mJ/cm^2 UVB (Figure 1c)) | effect on UVB-induced Chk1 phosphorylation at serine 345 [2] | pIC50 (ATM) | effect on UVB-induced cleavage of caspase 3 and PARP [3] | plasma concentration of caffeine [4] | effect on UVB-induced phosphorylation of Chk1 on Ser345 in the epidermis [5] | effect on UV-induced skin carcinogenesis [6] | pIC50 (cAMP phosphodiesterase) | effect on UVB-induced apoptosis ([1]; doses up to 300 μM, 30 min before 75 mJ/cm^2 UVB, 24 h (Figure 1d)) |
| --- | --- | --- | --- | --- | --- | --- | --- | --- | --- | --- | --- | --- |
| Cn1c(=O)c2c(ncn2C)n(C)c1=O [caffeine, Caffeine] | 24 | 42 | 48 | two- to three-fold increase; also recorded: more than doubled | inhibited | 3.70 | augmented | 3.2 mg/l and 16 μM | markedly inhibited | inhibits | 2.52 | – |
| CCCC(=O)Nc1ncnc2c1ncn2[C@@H]1O[C@@H]2COP(=O)(O)O[C@H]2[C@H]1OC(=O)CCC [dibutyryl cAMP, N^6,2′-O-Dibutyryladenosine 3′,5′-cyclic monophosphate sodium salt] | – | – | – | – | – | – | – | – | – | – | – | no effect |
